From patent US8114880B2, “Piperidine or piperazine substituted tetrahydro-naphthalene-1-carboxylic acid MTP inhibiting compounds” (Janssen Pharmaceutica N.V., priority 2006, dated 2012)

Each compound was assayed against MTP (Homo sapiens, UniProt P55157) (assay: MTP assay (triglyceride transfer from donor to acceptor vesicles)). Details: MTP activity, percent triglyceride transfer from donor to acceptor vesicles, 37° C.
Assay type: biochemical
Method: MTP activity was measured using an assay similar to one described by J. R. Wetterau and D. B. Zilversmit in Chemistry and Physics of Lipids, 38, 205-222 (1985). To prepare the donor and acceptor vesicles, the appropriate lipids in chloroform were put into a glass test tube and dried under a stream of nitrogen. A buffer containing 15 mM Tris-HCl pH 7.5, 1 mM EDTA, 40 mM NaCl, 0.02% NaN3 (assay buffer) was added to the dried lipid. The mixture was vortexed briefly and the lipids were then allowed to hydrate for 20 minutes on ice. Vesicles were then prepared by bath sonication (Branson 2200) at room temperature for maximum 15 minutes. Butylated hydroxytoluene was included in all vesicle preparations at a concentration of 0.1%. The lipid transfer assay mixture contained donor vesicles (40 nmol phosphatidylcholine, 7.5 mol % of cardiolipin and 0.25 mol % glycerol tri [1-^14C]-oleate), acceptor vesicles (240 nmol phosphatidylcholine) and 5 mg BSA in a total volume of 675 μl in a 1.5 ml microcentrifuge tube. Test compounds were added dissolved in DMSO (0.13% final concentration). After 5 minutes of pre-incubation at 37° C., the reaction was started by the addition of MTP in 100 μl dialysis buffer. The reaction was stopped by the addition of 400 μl DEAE-52 cellulose pre-equilibrated in 15 mM Tris-HCl pH 7.5, 1 mM EDTA, 0.02% NaN3 (1:1, vol/vol). The mixture was agitated for 4 minutes and centrifuged for 2 minutes at maximum speed in an Eppendorf centrifuge (4° C.) to pellet the DEAE-52-bound donor vesicles. An aliquot of the supernatant containing the acceptor liposomes was counted and the [^14C]-counts were used to calculate the percent triglyceride transfer from donor to acceptor vesicles.

Chain of MTP (P55157 19-894, species assumed): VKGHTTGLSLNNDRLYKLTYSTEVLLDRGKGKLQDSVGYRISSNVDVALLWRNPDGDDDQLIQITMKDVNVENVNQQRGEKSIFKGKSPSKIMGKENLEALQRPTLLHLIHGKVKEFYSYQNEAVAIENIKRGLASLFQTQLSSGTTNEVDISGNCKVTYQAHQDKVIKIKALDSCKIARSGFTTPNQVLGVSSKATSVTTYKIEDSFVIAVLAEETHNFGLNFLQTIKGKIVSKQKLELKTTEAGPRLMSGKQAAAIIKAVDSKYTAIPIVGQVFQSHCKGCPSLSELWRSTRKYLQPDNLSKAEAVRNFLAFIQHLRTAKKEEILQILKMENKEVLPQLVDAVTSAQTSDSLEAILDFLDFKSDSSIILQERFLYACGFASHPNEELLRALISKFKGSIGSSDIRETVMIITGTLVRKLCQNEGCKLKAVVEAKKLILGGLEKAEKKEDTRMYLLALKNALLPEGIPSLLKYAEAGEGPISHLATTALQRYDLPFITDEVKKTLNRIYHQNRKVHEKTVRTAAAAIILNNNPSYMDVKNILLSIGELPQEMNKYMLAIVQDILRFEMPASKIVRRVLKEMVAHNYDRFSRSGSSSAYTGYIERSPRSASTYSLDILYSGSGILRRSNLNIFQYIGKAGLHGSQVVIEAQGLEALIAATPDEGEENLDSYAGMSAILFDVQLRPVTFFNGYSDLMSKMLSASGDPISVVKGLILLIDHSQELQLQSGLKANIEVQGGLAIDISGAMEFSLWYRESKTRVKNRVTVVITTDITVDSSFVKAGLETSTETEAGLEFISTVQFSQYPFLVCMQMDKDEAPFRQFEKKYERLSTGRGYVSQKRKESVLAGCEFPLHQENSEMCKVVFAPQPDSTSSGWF
Chain of MTP (P07237 18-508 partner, species assumed): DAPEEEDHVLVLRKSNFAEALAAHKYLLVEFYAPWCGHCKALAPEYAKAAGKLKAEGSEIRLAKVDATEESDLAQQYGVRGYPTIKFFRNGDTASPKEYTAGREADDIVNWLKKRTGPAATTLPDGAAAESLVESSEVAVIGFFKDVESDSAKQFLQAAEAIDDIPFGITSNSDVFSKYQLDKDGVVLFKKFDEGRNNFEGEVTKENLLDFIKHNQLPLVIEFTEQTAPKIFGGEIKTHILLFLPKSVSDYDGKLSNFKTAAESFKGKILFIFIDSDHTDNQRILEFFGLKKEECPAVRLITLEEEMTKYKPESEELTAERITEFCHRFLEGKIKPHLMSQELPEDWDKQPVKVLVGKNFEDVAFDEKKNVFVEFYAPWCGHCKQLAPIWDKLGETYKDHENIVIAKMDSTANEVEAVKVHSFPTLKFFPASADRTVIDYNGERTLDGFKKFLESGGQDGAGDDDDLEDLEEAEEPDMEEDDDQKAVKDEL

Row | Structure (SMILES) | IC50 [µM]
1 | C=CCOC(=O)[C@]1(c2ccccc2)CC[C@H](C(=O)N2CCC(NC(=O)c3ccccc3)CC2)c2ccccc21 [Co. No. 12] | 0.778
2 | CCOC(=O)[C@]1(c2ccccc2)CC[C@H](C(=O)N2CCN(C(=O)c3ccccc3)CC2)c2ccccc21 [Co. No. 29] | 3.34
3 | CCOC(=O)[C@]1(c2ccccc2)CC[C@H](C(=O)N2CCN(C(=O)c3ccccc3-c3ccc(C(F)(F)F)cc3)CC2)c2ccccc21 [Co. No. 31] | 0.348
4 | COC(=O)[C@]1(c2ccccc2)CC[C@@H](C(=O)N2CCC(NC(=O)c3cc(S(N)(=O)=O)ccc3OC)CC2)c2ccccc21 [Co. No. 52] | 0.627
5 | CCOC(=O)[C@H](CO)NC(=O)[C@@]1(c2ccccc2)CC[C@H](C(=O)N2CCC(NC(=O)c3ccccc3OC)CC2)c2ccccc21 [Co. No. 71] | 0.493
6 | CCOC(=O)[C@@H]1CCCN1C(=O)[C@@]1(c2ccccc2)CC[C@H](C(=O)N2CCC(NC(=O)c3ccccc3OC)CC2)c2ccccc21 [Co. No. 76] | 0.326
7 | COC(=O)[C@@H]1C[C@@H](O)CN1C(=O)[C@@]1(c2ccccc2)CC[C@H](C(=O)N2CCC(NC(=O)c3ccccc3OC)CC2)c2ccccc21 [Co. No. 78] | 3.82
8 | COc1ccccc1C(=O)NC1CCN(C(=O)[C@H]2CC[C@@](C(=O)N3C[C@H](O)C[C@H]3C(=O)O)(c3ccccc3)c3ccccc32)CC1 [Co. No. 92] | > 10
9 | COc1ccccc1C(=O)NC1CCN(C(=O)[C@H]2CC[C@@](C(=O)N[C@H](C)C(=O)OC(C)(C)C)(c3ccccc3)c3ccccc32)CC1 [Co. No. 93] | 0.00933
10 | COc1ccccc1C(=O)NC1CCN(C(=O)[C@H]2CC[C@@](C(=O)N3CCCC3C(=O)OC(C)(C)C)(c3ccccc3)c3ccccc32)CC1 (some centres unmarked) [Co. No. 94] | 0.21
11 | COc1ccccc1C(=O)NC1CCN(C(=O)[C@H]2CC[C@@](C(=O)N[C@@H](C(=O)OC(C)(C)C)c3ccccc3)(c3ccccc3)c3ccccc32)CC1 [Co. No. 95] | 0.14
12 | COc1ccccc1C(=O)NC1CCN(C(=O)[C@H]2CC[C@@](C(=O)N[C@H](C)C(=O)O)(c3ccccc3)c3ccccc32)CC1 [Co. No. 97] | 4.12
13 | COc1ccccc1C(=O)NC1CCN(C(=O)[C@H]2CC[C@@](C(=O)N[C@@H](C(=O)O)c3ccccc3)(c3ccccc3)c3ccccc32)CC1 [Co. No. 99] | > 10
14 | COc1ccccc1C(=O)NC1CCN(C(=O)[C@H]2CC[C@@](C(=O)N[C@H](C(=O)OC(C)(C)C)c3ccccc3)(c3ccccc3)c3ccccc32)CC1 [Co. No. 111] | 0.219
15 | COc1ccccc1C(=O)NC1CCN(C(=O)[C@H]2CC[C@@](C(=O)N[C@@H](CC(N)=O)C(=O)OC(C)(C)C)(c3ccccc3)c3ccccc32)CC1 [Co. No. 115] | 0.301
16 | COc1ccccc1C(=O)NC1CCN(C(=O)[C@H]2CC[C@@](C(=O)N[C@@H](C)C(=O)O)(c3ccccc3)c3ccccc32)CC1 [Co. No. 116] | 8.41
17 | COc1ccccc1C(=O)NC1CCN(C(=O)[C@H]2CC[C@@](C(=O)NC(C(=O)O)C(=O)O)(c3ccccc3)c3ccccc32)CC1 [Co. No. 117] | 4.75
18 | COc1ccccc1C(=O)NC1CCN(C(=O)[C@H]2CC[C@@](C(=O)N[C@H](C(=O)O)c3ccccc3)(c3ccccc3)c3ccccc32)CC1 [Co. No. 124] | > 10
19 | COC(=O)[C@H](CCCCNC(C)=O)NC(=O)[C@@]1(c2ccccc2)CC[C@H](C(=O)N2CCC(NC(=O)c3ccccc3OC)CC2)c2ccccc21 [Co. No. 130] | 0.262
20 | COc1ccccc1C(=O)NC1CCN(C(=O)[C@H]2CC[C@@](C(=O)N[C@@H](CCCCN)C(=O)O)(c3ccccc3)c3ccccc32)CC1 [Co. No. 132] | 0.355
21 | CCOC(=O)[C@@H](C)NC(=O)[C@@]1(c2ccccc2)CC[C@H](C(=O)N2CCC(NC(=O)c3cccn(C)c3=O)CC2)c2ccccc21 [Co. No. 136] | 1.09
22 | CCOC(=O)[C@@H](NC(=O)[C@@]1(c2ccccc2)CC[C@H](C(=O)N2CCC(NC(=O)c3cccn(C)c3=O)CC2)c2ccccc21)C(C)C [Co. No. 139] | 0.826

Results, then the compound that gave them:

Row | IC50 [µM] | Structure (SMILES)
23 | 1.79 | CCOC(=O)CC(C)NC(=O)[C@@]1(c2ccccc2)CC[C@H](C(=O)N2CCC(NC(=O)c3cccn(C)c3=O)CC2)c2ccccc21 (mixture of isomers) [Co. No. 223]
24 | 0.689 | CCNC(=O)[C@]1(c2ccccc2)CC[C@H](C(=O)N2CCC(NC(=O)c3ccccc3OC)CC2)c2ccccc21 [Co. No. 9]
25 | 0.277 | CCNC(=O)[C@]1(c2ccccc2)CC[C@@H](CN2CCC(NC(=O)c3ccccc3)CC2)c2ccccc21 [Co. No. 17]
26 | 0.601 | CCOC(=O)[C@]1(c2ccccc2)CC[C@H](C(=O)N2CCN(C(=O)c3ccccc3OC)CC2)c2ccccc21 [Co. No. 30]
27 | 7.83 | COc1ccccc1C(=O)NC1CCN(C(=O)[C@H]2CC[C@](C(N)=O)(c3ccccc3)c3ccccc32)CC1 [Co. No. 37]
28 | 3.82 | CCNC(=O)[C@]1(c2ccccc2)CC[C@@H](C(=O)N2CCC(NC(=O)c3ccccc3OC)CC2)c2ccccc21 [Co. No. 38]
29 | 0.00251 | COC(=O)[C@]1(c2ccccc2)CC[C@@H](C(=O)N2CCC(NC(=O)c3ccccc3OC)CC2)c2ccccc21 [Co. No. 60]
30 | 0.217 | CCOC(=O)[C@H]1CCCN1C(=O)[C@@]1(c2ccccc2)CC[C@H](C(=O)N2CCC(NC(=O)c3ccccc3OC)CC2)c2ccccc21 [Co. No. 77]
31 | 0.0117 | COc1ccccc1C(=O)NC1CCN(C(=O)[C@H]2CC[C@@](C(=O)N(C)CC(=O)OC(C)(C)C)(c3ccccc3)c3ccccc32)CC1 [Co. No. 87]
32 | > 0.1 | COc1ccccc1C(=O)NC1CCN(C(=O)[C@H]2CC[C@@](C(=O)N3C[C@H](OC(C)(C)C)C[C@H]3C(=O)OC(C)(C)C)(c3ccccc3)c3ccccc32)CC1 [Co. No. 91]
33 | 4.75 | COc1ccccc1C(=O)NC1CCN(C(=O)[C@H]2CC[C@@](C(=O)N3CCC[C@@H]3C(=O)O)(c3ccccc3)c3ccccc32)CC1 [Co. No. 98]
34 | 6.05 | COc1ccccc1C(=O)NC1CCN(C(=O)[C@H]2CC[C@@](C(=O)N[C@H](Cc3ccccc3)C(=O)O)(c3ccccc3)c3ccccc32)CC1 [Co. No. 100]
35 | 0.0042 | COc1ccccc1C(=O)NC1CCN(C(=O)[C@H]2CC[C@@](C(=O)N[C@@H](C)C(=O)OC(C)(C)C)(c3ccccc3)c3ccccc32)CC1 [Co. No. 101]
36 | 0.163 | COc1ccccc1C(=O)NC1CCN(C(=O)[C@H]2CC[C@@](C(=O)N[C@@H](Cc3ccc(O)cc3)C(=O)OC(C)(C)C)(c3ccccc3)c3ccccc32)CC1 [Co. No. 113]
37 | 0.203 | COc1ccccc1C(=O)NC1CCN(C(=O)[C@H]2CC[C@@](C(=O)N[C@@H](Cc3c[nH]c4ccccc34)C(=O)OC(C)(C)C)(c3ccccc3)c3ccccc32)CC1 [Co. No. 114]
38 | 0.887 | COc1ccccc1C(=O)NC1CCN(C(=O)[C@H]2CC[C@@](C(=O)N[C@@H](C(=O)O)C(C)C)(c3ccccc3)c3ccccc32)CC1 [Co. No. 118]
39 | > 10 | COc1ccccc1C(=O)NC1CCN(C(=O)[C@H]2CC[C@@](C(=O)N[C@@H](CC(C)C)C(=O)O)(c3ccccc3)c3ccccc32)CC1 [Co. No. 119]
40 | > 10 | COc1ccccc1C(=O)NC1CCN(C(=O)[C@H]2CC[C@@](C(=O)N[C@@H](COC(C)(C)C)C(=O)O)(c3ccccc3)c3ccccc32)CC1 [Co. No. 120]
41 | 4.75 | COc1ccccc1C(=O)NC1CCN(C(=O)[C@H]2CC[C@@](C(=O)N[C@@H](CCC(=O)O)C(=O)O)(c3ccccc3)c3ccccc32)CC1 [Co. No. 122]
42 | 3.82 | COc1ccccc1C(=O)NC1CCN(C(=O)[C@H]2CC[C@@](C(=O)N3CCC[C@H]3C(=O)O)(c3ccccc3)c3ccccc32)CC1 [Co. No. 123]
43 | 8.61 | COc1ccccc1C(=O)NC1CCN(C(=O)[C@H]2CC[C@@](C(=O)N[C@@H](Cc3ccccc3)C(=O)O)(c3ccccc3)c3ccccc32)CC1 [Co. No. 125]
44 | 6.19 | COc1ccccc1C(=O)NC1CCN(C(=O)[C@H]2CC[C@@](C(=O)N[C@@H](Cc3ccc(O)cc3)C(=O)O)(c3ccccc3)c3ccccc32)CC1 [Co. No. 126]
45 | > 10 | COc1ccccc1C(=O)NC1CCN(C(=O)[C@H]2CC[C@@](C(=O)N[C@@H](Cc3c[nH]c4ccccc34)C(=O)O)(c3ccccc3)c3ccccc32)CC1 [Co. No. 127]
46 | > 10 | COc1ccccc1C(=O)NC1CCN(C(=O)[C@H]2CC[C@@](C(=O)N[C@@H](CC(N)=O)C(=O)O)(c3ccccc3)c3ccccc32)CC1 [Co. No. 128]
47 | 0.0456 | CCOC(=O)[C@H](CCCCNC(C)=O)NC(=O)[C@@]1(c2ccccc2)CC[C@H](C(=O)N2CCC(NC(=O)c3ccccc3OC)CC2)c2ccccc21 [Co. No. 131]
48 | 0.796 | CCOC(=O)CNC(=O)[C@@]1(c2ccccc2)CC[C@H](C(=O)N2CCC(NC(=O)c3cccn(C)c3=O)CC2)c2ccccc21 [Co. No. 133]
49 | 1.34 | CCOC(=O)[C@H](C)NC(=O)[C@@]1(c2ccccc2)CC[C@H](C(=O)N2CCC(NC(=O)c3cccn(C)c3=O)CC2)c2ccccc21 [Co. No. 135]
50 | 0.474 | CCOC(=O)CN(C)C(=O)[C@@]1(c2ccccc2)CC[C@H](C(=O)N2CCC(NC(=O)c3cccn(C)c3=O)CC2)c2ccccc21 [Co. No. 137]
